Measurements reported in the SangsterLogP compilation.

settings: not given

Row | SMILES | logP
1 | C[C@]12CCC(=O)C=C1CC[C@@H]1[C@@H]2CC[C@@]2(C)[C@H]1CC[C@]2(O)[C@H](O)CO | 2
2 | CC(=O)CCC(C)=O | -0.27
3 | c1ccc(CCCc2ccccc2)cc1 | 3.43
4 | O=C1C=C(Br)C(=O)c2ccccc21 | 2.44
5 | CNC(=O)c1ccoc1 | 0.34
6 | O/N=C/c1ccccc1 | 1.85
7 | CNC(=O)c1ccco1 | 0.23
8 | O=[N+]([O-])c1ccccc1CO | 1.24
9 | O=C1C(Br)=C(N2CC2)C(=O)C(Br)=C1N1CC1 | 2.03
10 | CNC1=CC(=O)C(NC)=CC1=O | 0.34
11 | CCS(=O)(=O)CC | -0.59
12 | Nc1n[nH]c(Cc2ccc([N+](=O)[O-])o2)n1 | 1.28
13 | O=C(O)Cc1ccccc1Nc1c(F)cccc1Cl | 3.8
14 | CCCCn1cnc2c(NC(C)=O)ncnc21 | 0.55
15 | CC(C)c1ccccc1N | 2.12
16 | CCN(CC)C(=O)COC(=O)[C@@H](C)c1ccc2cc(OC)ccc2c1 | 3.32
17 | CS(C)(=O)=O | -1.34
18 | Clc1c(Cl)c(Cl)c2ccccc2c1Cl | 5.75
19 | C1=C\C=C/C=C\C=C/1 | 3.08
20 | CC1(C)N=C(N)N=C(N)N1c1cccc(OCCOc2ccccc2)c1 | -0.84
21 | CCCSP(=S)(OCC)Oc1ccc(Cl)cc1Cl (configuration not stated) | 4.92
22 | [O-][n+]1ccccc1 | -1.2

Row | SMILES | logP
23 | COC1=C(N2CC2)C(=O)C(OC)=C(N2CC2)C1=O | 0.17
24 | Clc1nc(-c2ccccc2)nc2ccccc12 | 4.47
25 | N#Cc1ccc2[nH]c(N)nc2c1 | 1.13
26 | Nc1ccc2c(c1)C(=O)N(O)C2=O | 0.16
27 | CCOC(=O)Nc1cccc(OC(=O)Nc2ccccc2)c1 | 3.39
28 | CN(C)c1ccc(C(=O)c2ccc(N(C)C)cc2)cc1 | 3.87
29 | CN(C)/C=C/C#N | 0.47
30 | CCCCNC(=S)N(CCCC)CCCC | 3.68
31 | N#Cc1ccccc1N | 1.4
32 | CCCCc1c(C)[nH]c(N(C)C)nc1=O | 1.9
33 | CC(C)NC(C)C | 1.4
34 | Nc1cc([N+](=O)[O-])cc([N+](=O)[O-])c1 | 1.89
35 | CCNC(=O)C1C2C=CC(C2)C1C(=O)NCC (configuration not stated) | 0.99
36 | CNC(=O)CNC(=O)CCc1ccc(S(=O)(=O)N(C)C)cc1 | -0.35
37 | N#Cc1ccncc1C#N | 0.24
38 | Nc1cc(C(F)(F)F)ccc1Cl | 3.06
39 | ClC(Cl)C(Cl)(Cl)Cl | 3.22
40 | CC(C)[C@H](NC(=O)[C@H](Cc1ccccc1)NC(=O)OC(C)(C)C)C(=O)O | 2.88
41 | O=C(OCCc1ccccc1)c1ccccc1 | 4.01
42 | O=CN1CCCC1 | -0.32
43 | CN(C)N=Nc1cccc2oc3ccccc3c12 | 4.55
44 | CC(C)C(C#N)Cc1ccc(Cl)cc1 (configuration not stated) | 3.41

Row | SMILES | logP
45 | CC(C)I | 2.89
46 | CC(C)(C)C1=Nc2ccc(Cl)cc2S(=O)(=O)N1 | 2.4
47 | C=CCn1cccn1 | 0.35
48 | CCOC(=O)N(C)C | 0.89
49 | CCN(CC)S(=O)(=O)c1ccc(OC)c(N)c1 | 1.7
50 | CCC(=O)N(C)C | -0.11
51 | Cc1ccno1 | 0.45
52 | Cc1cccc(OCC(O)CNC(C)C)c1 (configuration not stated) | 2.02
53 | Nc1ccn(C2CC(CO)C(O)C2O)c(=O)n1 (configuration not stated) | -2.41
54 | CN(C)C(=O)C12CC3CC(CC(C3)C1)C2 | 2.55
55 | O/N=C\c1ccc(F)cc1 | 2.03
56 | CNC(=N[N+](=O)[O-])NCCSCc1nc[nH]c1C | 0.13
57 | CC1(C)CNC(=NN=C(C=Cc2ccc(C(F)(F)F)cc2)C=Cc2ccc(C(F)(F)F)cc2)NC1 | 2.31
58 | COC(=O)c1cc(S(N)(=O)=O)ccc1SCCCO | 0.78
59 | CCCCCn1cnc2c(NC(C)=O)ncnc21 | 0.98
60 | O=C(O)c1ccc2c(c1)OCCOCCOCCOCCOCCO2 | -0.28
61 | CN(C)C(=O)SCCCCOc1ccccc1 | 3.28
62 | CNC(=S)NNc1ccccc1 | 1.17
63 | O=C1C=C(N2CC=CC2)C(=O)c2ccccc21 | 2.85
64 | CCOc1ccc(C(C)(C)COCc2cccc(Oc3ccccc3)c2)cc1 | 7.05
65 | COC(=O)c1ccccc1N | 1.88
66 | CC12CC(O)C3C(CCC4(O)CC(O)CC(O)C34CO)C1(O)CCC2C1=CC(=O)OC1 (configuration not stated) | -0.02

Row | SMILES | logP
67 | c1ccc(P(c2ccccc2)c2ccccc2)cc1 | 5.69
68 | O=C(OCCCc1cnc[nH]1)c1ccccc1 | 2.64
69 | CCc1cccc(CC)c1NC(=O)OC | 1.99
70 | Clc1cc(Cl)c2cc(Cl)cc(Cl)c2c1 | 6.19
71 | C=C(C)Cl | 2
72 | CC(C)Cc1cc([N+](=O)[O-])cc(C(C)C)c1O | 4.19
73 | CC(=O)C(C)C | 0.84
74 | CSc1nc2nc(Cl)ccc2[nH]1 | 2.39
75 | CNC(=S)N(C)C | 0.1
76 | N#CCC(=O)c1ccccc1 | 0.97
77 | CCC(C)C(C)(C)C(N)=O (configuration not stated) | 1.81
78 | CC(C(=O)O)c1ccc(N2C(=O)C3CC=CCC3C2=O)cc1 (configuration not stated) | 2.27
79 | CN(C)c1cccnc1 | 1.41
80 | CN1CCCC1=O | -0.54
81 | CN(C)N=Nc1nccs1 | 1.27
82 | COC(=O)CCCCCC(=O)OC | 1.38
83 | NC(=O)Nc1nc(-c2ccccc2)no1 | 1.76
84 | OCCCF | -0.28
85 | CCc1cccnc1 | 1.66
86 | CSC(=S)Nc1ccc(Cl)c(Cl)c1 | 4.23
87 | CCCOC | 1.21
88 | COc1ccc2c(c1)nc(N)n2C | 0.87

Row | SMILES | logP
89 | Clc1cc(Cl)c2c(Cl)ccc(Cl)c2c1 | 5.76
90 | FCC1CO1 (configuration not stated) | -0.16
91 | Nc1ccc([C@@H](O)[C@@H](CO)NC(=O)C(Cl)Cl)cc1 | -0.29
92 | CN(C)C(=O)c1ccccc1O | 0.44
93 | CCOC(=O)NNc1ccccc1 | 1.22
94 | COc1ccccc1C(C)=O | 1.82
95 | FC1(F)C(F)(F)C(F)(F)C(F)(F)C(F)(F)C1(F)F | 2.91
96 | C1=C(c2ccccc2)CCCC1 | 4.53
97 | CC(C)C(C)C | 3.42
98 | Cn1ccc(=O)n(C)c1=O | -0.54
99 | N#CC#N | 0.07
100 | COc1ccc2[nH]c(N)nc2c1 | 0.57
101 | Fc1cccc(F)n1 | 1.17
102 | COc1cccc2ccccc12 | 3.63
103 | CC#CC#CC | 2.24
104 | CC1(C)CCC(C)(C)O1 | 2.06
105 | Cn1c(=O)sc2ccccc21 | 1.98
106 | COC(=O)Nc1c(C(C)C)cccc1C(C)C | 2.2
107 | N#C/C=C/C#N | -0.25
108 | C=CC1(C)OC(=O)N(c2cc(Cl)cc(Cl)c2)C1=O (configuration not stated) | 3.1
109 | CC(C)(C)Br | 1.15
110 | Cc1ccc2[nH]c(N)nc2c1 | 1.11

Row | SMILES | logP
111 | CC1(O)CCCCC1 | 1.33
112 | O=[N+]([O-])c1ccc(/C=C/c2ncc[nH]2)o1 | 1.32
113 | c1ccc(-c2cc3ccccc3[nH]2)nc1 | 3.33
114 | C[C@H](C(=O)O)c1ccc(N2Cc3ccccc3C2=O)cc1 | 2.89
115 | CC(C)(C)Cl | 1.82
116 | CN1C(=O)CCC1=O | -0.95
117 | C1CCCCCC1 | 4
118 | O=C1C=CC(=O)N1c1ccccc1 | 1.09
119 | COc1cc(C)c2c(c1OC)C1CCC(NCc3ccccc3)C(=O)CC1C(NC(C)=O)CC2 (configuration not stated) | 3.58
120 | CCSC | 1.54
121 | COc1ccc(CC#N)cc1 | 1.7
122 | O=C1CC(Sc2nc3ccccc3s2)N1 (configuration not stated) | 2.3
123 | Cc1ccc(-c2noc(C)n2)cc1 | 2.74
124 | CCC(C)OC(C)=O (configuration not stated) | 1.72
125 | O=C(COC(=O)c1ccccc1)NC1CCCCC1 | 2.81
126 | C/C=C/C(C)=O | 0.52
127 | CCCOP(OCCC)OCCC | 2.26
128 | CCOC(=O)C(Cl)(Cl)Cl | 2.39
129 | COc1ccc(C(C)=O)c(OC)c1OC | 1.63
130 | O=C1C=CCO1 | -0.6
131 | c1ccc2c(c1)Cc1ccccc1S2 | 3.86
132 | O=[N+]([O-])c1ccco1 | 0.66

same assay, conditions: pH 1.0

Row | SMILES | logD
133 | O=C(O)CCCl | 0.41
134 | CCOc1ccc(C(=O)O)cc1OCC | 2.37
135 | O=C(O)Cc1ccc2ccccc2c1 | 2.81

same assay, conditions: pH 2.1

Row | SMILES | logD
136 | CC(=O)Nc1ccc(S(N)(=O)=O)cc1 | 0
137 | CCCCCCOc1ccc(S(N)(=O)=O)cc1[N+](=O)[O-] | 3.03

same assay, conditions: pH 5.0

Row | SMILES | logD
138 | c1n[nH]c2c1CC[C@H]1c3[nH]ncc3CC[C@H]21 | 0.3

same assay, conditions: pH 7.0

Row | SMILES | logD
139 | COC(=O)c1ccc(NC(C)=O)cc1 | 1.64
140 | CCC1COC(Cn2cncn2)(c2ccc(-n3cncn3)cc2Cl)O1 (configuration not stated) | 1.28
141 | CCCCC#N | 1.12

same assay, conditions: pH 7.4

Row | SMILES | logD
142 | CN(C)c1ccc2c(c1)C(c1ccccc1Cl)=NCC(=O)N2C | 2.72
143 | Cc1cc2c3ccccc3nc-2[nH]c1N | 2.9
144 | CS(=O)c1ccc2c(c1)C(c1ccccc1)=NCC(=O)N2 (configuration not stated) | 0.8
145 | COC(=O)Cn1c([N+](=O)[O-])cnc1C | 0.17
146 | Clc1cccc2cccnc12 | 2.44
147 | O=C1Nc2ccccc2C1=O | 0.83
148 | CCCc1ncc([N+](=O)[O-])n1CCNC(=S)OC | 1.94
149 | Cc1cc(C)c2c(c1)C(c1ccccc1)=NCC(=O)N2 | 2.94
150 | OCc1ccc2cccnc2c1 | 1.29
151 | Cn1c([N+](=O)[O-])cnc1-c1ccc(F)cc1 | 1.83
152 | CCc1ccc([N+](=O)[O-])cc1 | 3.03
153 | CN1C(=O)CN=C(c2ccccc2C(F)(F)F)c2cc([N+](=O)[O-])ccc21 | 2.45
154 | Cn1c(N)nc2ncc(-c3ccccc3)cc21 | 2.23
155 | C#CCn1ncc2cc([N+](=O)[O-])ccc21 | 0.52
156 | O=C(NC(F)(F)F)c1cccc2cccnc12 | 3.24
157 | c1ccc(COc2cccc3cccnc23)cc1 | 3.51

same assay, conditions: pH 9.0

Row | SMILES | logD
158 | Cc1c[nH]cn1 | 0.23

same assay, conditions: pH 9.2

Row | SMILES | logD
159 | C=CCOC(Cn1ccnc1)c1ccc(Cl)cc1Cl (configuration not stated) | 3.82

same assay, conditions: pH 9.8

Row | SMILES | logD
160 | c1ccc(C2CN3CCSC3=N2)cc1 (configuration not stated) | 1.84

same assay, conditions: pH 10.6

Row | SMILES | logD
161 | C=CCN1CCc2nc(N)sc2CC1 | 1.48

same assay, conditions: pH 13.0

Row | SMILES | logD
162 | N=C(N)c1ccc(N)cc1 | -0.49
163 | CNCCO | -0.94
164 | C1CCC2=NCCCN2CC1 | 1.38
165 | C#CCN | -0.43
166 | Cc1ccc(Cc2cnc(N)nc2N)c(C)c1N | 1.12
167 | Nc1ncc(Cc2cccc(Cl)c2Cl)c(N)n1 | 2.81
168 | COc1cccc(OC)c1Cc1cnc(N)nc1N | 1.7
169 | N=C(N)c1ccccc1 | 0.65
170 | c1ccc(C23CCN(CC2)CC3)cc1 | 2.54
171 | c1ccc(N2CCNCC2)cc1 | 1.11
172 | CN1CCN(C)CC1 | -0.4
